Reference: the supplement of paper PMC5908809

Tests used:
[1] = tested on: normal primary NK cells, pool 1 (3 donors), resting (IL-2 0 ng/mL); assay: percent inhibition of viability; higher = more inhibition; conditions: 72 h
[2] = tested on: normal primary NK cells, pool 3 (3 donors) (IL-2 2.5 ng/mL); assay: as above; conditions: 72 h
[3] = tested on: normal primary NK cells, pool 2 (3 donors) (IL-2 2.5 ng/mL); assay: as above; conditions: 72 h
IMC-1 (IL-2 20 ng/mL) [4] = assay: as above; conditions: 72 h
SNK-6 (IL-2 2.5 ng/mL) [5] = assay: as above; conditions: 72 h
NKL (IL-2 2.5 ng/mL) [6] = assay: as above; conditions: 72 h
KHYG-1 (IL-2 2.5 ng/mL) [7] = assay: as above; conditions: 72 h
NK-92 (IL-2 2.5 ng/mL) [8] = assay: as above; conditions: 72 h
[9] = tested on: normal primary NK cells, pool 1 (3 donors) (IL-2 2.5 ng/mL); assay: as above; conditions: 72 h
NK-YS (IL-2 2.5 ng/mL) [10] = assay: as above; conditions: 72 h
YT (IL-2 2.5 ng/mL) [11] = assay: as above; conditions: 72 h
KAI3 (IL-2 2.5 ng/mL) [12] = assay: as above; conditions: 72 h
DERL-7 (IL-2 2.5 ng/mL) [13] = assay: as above; conditions: 72 h
[14] = tested on: normal NK cells expanded with K562-aAPC; assay: as above; conditions: 72 h, IL-2 2.5 ng/mL
Method: (§1)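 Drug sensitivity and resistance testing on K562-aAPC-expanded normal NK cells: 5 concentrations (10-fold steps over a 10,000-fold range), 72 h at 37 °C, viability by CellTiter-Glo normalised to DMSO and benzethonium chloride controls; DSS from the fitted curve.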

[15] = tested on: normal NK cells expanded with K562-aAPC; assay: drug sensitivity score (DSS) (DSS units); higher = more sensitive; extreme values may be limits of the assay; conditions: 72 h; IL-2 2.5 ng/mL
Method: as §1

[16] = tested on: normal primary NK cells, pool 1 (3 donors), resting (IL-2 0 ng/mL); assay: as above; conditions: 72 h
[17] = tested on: normal primary NK cells, pool 3 (3 donors) (IL-2 2.5 ng/mL); assay: as above; conditions: 72 h
[18] = tested on: normal primary NK cells, pool 2 (3 donors) (IL-2 2.5 ng/mL); assay: as above; conditions: 72 h
IMC-1 (IL-2 20 ng/mL) [19] = assay: as above; conditions: 72 h
SNK-6 (IL-2 2.5 ng/mL) [20] = assay: as above; conditions: 72 h
NKL (IL-2 2.5 ng/mL) [21] = assay: as above; conditions: 72 h
KHYG-1 (IL-2 2.5 ng/mL) [22] = assay: as above; conditions: 72 h
NK-92 (IL-2 2.5 ng/mL) [23] = assay: as above; conditions: 72 h
[24] = tested on: normal primary NK cells, pool 1 (3 donors) (IL-2 2.5 ng/mL); assay: as above; conditions: 72 h
NK-YS (IL-2 2.5 ng/mL) [25] = assay: as above; conditions: 72 h
YT (IL-2 2.5 ng/mL) [26] = assay: as above; conditions: 72 h
KAI3 (IL-2 2.5 ng/mL) [27] = assay: as above; conditions: 72 h
DERL-7 (IL-2 2.5 ng/mL) [28] = assay: as above; conditions: 72 h

Cc1ccc(C(=O)N(CCCN)[C@@H](c2oc3cc(Cl)ccc3c(=O)c2Cc2ccccc2)C(C)C)cc1 (max concentration tested 100 nM)
percent inhibition of viability [%]
Conditions | 0.01 nM | 0.1 nM | 1 nM | 10 nM | 100 nM
DERL-7 (IL-2 2.5 ng/mL) [13] | -6.36 | -10.3 | -3.04 | 12.1 | 100
IMC-1 (IL-2 20 ng/mL) [4] | -7.61 | -1.73 | 0.06 | 99.8 | 101
KAI3 (IL-2 2.5 ng/mL) [12] | -6.39 | -3.85 | -7.56 | 25.9 | 57.9
KHYG-1 (IL-2 2.5 ng/mL) [7] | 2.63 | -2.09 | 3.33 | 98.1 | 108
NK-92 (IL-2 2.5 ng/mL) [8] | -6.69 | -0.53 | 4.14 | 12.2 | 92.1
NK-YS (IL-2 2.5 ng/mL) [10] | -1.37 | -2.68 | 5 | 71.1 | 80.5
NKL (IL-2 2.5 ng/mL) [6] | 7.05 | -6.08 | 0.2 | 79.2 | 94.4
SNK-6 (IL-2 2.5 ng/mL) [5] | -16.1 | -20.8 | 5.75 | 78 | 91.8
YT (IL-2 2.5 ng/mL) [11] | -0.9 | -3.95 | -3.98 | 6.11 | 67.4
[1] | -14 | -28.1 | 6.55 | -12.4 | 0.78
[2] | -4.72 | -7.26 | 16.7 | 13.5 | 15.5
[3] | -6.06 | -2.94 | 7.66 | 13.1 | 9.78
[9] | -6.46 | -14.6 | 7.89 | 0.13 | 9.64
[14] | 0.7 | -0.13 | 0.62 | 47.5 | 60.9

Conditions | drug sensitivity score
DERL-7 (IL-2 2.5 ng/mL) [28] | 7.54
IMC-1 (IL-2 20 ng/mL) [19] | 17.9
KAI3 (IL-2 2.5 ng/mL) [27] | 6.54
KHYG-1 (IL-2 2.5 ng/mL) [22] | 18.2
NK-92 (IL-2 2.5 ng/mL) [23] | 7.14
NK-YS (IL-2 2.5 ng/mL) [25] | 13.7
NKL (IL-2 2.5 ng/mL) [21] | 14.5
SNK-6 (IL-2 2.5 ng/mL) [20] | 15
YT (IL-2 2.5 ng/mL) [26] | 4.68
[15] | 8.92
[16] | 0
[17] | 3.16
[18] | 1.26
[24] | 0
